Data from ChEMBL document CHEMBL6109069 (J Med Chem, 2025).
Calls of active or inactive are those of the source. The rule behind the calls is not given here. Non-standard residues stand in square brackets, D forms with d. Residues, ends and D or L forms follow the SMILES beside them. *: point of attachment. Hexenoyl(2E,4S-Me) = CC[C@H](C)/C=C/C(=O)*; Leu(3R-OH) = CC(C)[C@@H](O)[C@H](N)C(=O)O; NH((S)CH(Me)CH2NMe2) = C[C@@H](CN(C)C)N*; NH(2-morpholinoethyl) = C(CN1CCOCC1)N*; Pro(4S-Me) = C[C@@H]1CN[C@H](C(=O)O)C1; NH(1-CH2NMe2-cBu) = CN(C)CC1(N*)CCC1; Gly(octyl) = CCCCCCCC[C@H](N)C(=O)O; Oxazole4CO(2-Me) = Cc1nc(C(=O)*)co1; Benzoyl(4-F) = O=C(c1ccc(F)cc1)*; hCha = N[C@@H](CCC1CCCCC1)C(=O)O; Tle = CC(C)(C)[C@H](N)C(=O)O; Nle = CCCC[C@H](N)C(=O)O; Hexanoyl = CCCCCC(=O)*; Aib = CC(C)(N)C(=O)O; βAla = NCCC(=O)O; tBu = CC(C)(C)*

Columns and labels:
[1] = Inhibition of Bovine heart ATP synthase assessed as inhibition constant by Michaelis-Menten plot analysis; set-up: species or system Bos taurus
[2] = Cytotoxicity against rat L6 cells assessed as cell viability; assay type: toxicity, cell-based
[3] = tested on: Trypanosoma brucei rhodesiense; assay: Antitrypanosomal activity against Trypanosoma brucei rhodesiense STIB 900; assay type: functional, organism-based
Plasmodium falciparum = assay: Antiplasmodial activity against Plasmodium falciparum NF54 incubated for 48 hrs; assay type: functional, organism-based; conditions: NF54, 48 h
Leishmania donovani = assay: Antitrypanosomal activity against Leishmania donovani MHOM/ET/67/L82 incubated for 72 hrs by resazurin staining based analysis; assay type: functional, organism-based; conditions: MHOM/ET/67/L82, 72 h
Trypanosoma cruzi = assay: Antitrypanosomal activity against Trypanosoma cruzi Tulahuen C4 incubated for 4 days; assay type: functional, organism-based; conditions: Tulahuen C4, 96 h
Fibroblast [4] = assay: Reduction in respiration rate in human Fibroblast cells assessed as decrease in coupling efficiency at > 200 nM incubated up to 60 mins; assay type: functional, cell-based
[5] = tested on: Trypanosoma brucei rhodesiense; assay: Antitrypanosomal activity against Trypanosoma brucei rhodesiense STIB 900 incubated for 72 hrs by resazurin staining based analysis; assay type: functional, organism-based; conditions: STIB 900, 72 h
[6] = Cytotoxicity against rat L6 cells assessed as cell viability incubated for 72 hrs by CCK-8 assay
Fibroblast [7] = assay: Reduction in respiration rate in human Fibroblast cells assessed as decrease in coupling efficiency at 50 nM incubated up to 60 mins; assay type: functional, cell-based

IC50 [3] [µM] | SMILES | Ki ([1]; read-out: Ki) [µM] | IC50 [2] [µM] | IC50 (Plasmodium falciparum) [µM] | IC50 (Leishmania donovani) [µM] | IC50 (Trypanosoma cruzi) [µM] | Activity (Fibroblast [4]) | IC50 [5] [µM] | IC50 at 72 h [6] [µM] | Activity (Fibroblast [7]) | Ki [1]
– | CCCCCC(=O)N1CCC[C@H]1C(=O)N[C@@H](CCC1CCCCC1)C(=O)N[C@@H](CC(C)C)C(=O)NC(C)(C)C(=O)N[C@@H](CC(C)C)C(=O)N[C@@H](CC(C)C)C(=O)NC(C)(C)C(=O)NC(C)(C)C(=O)NCCC(=O)N[C@@H](C)CN(C)C (Hexanoyl-P[hCha]L[Aib]LL[Aib][Aib][βAla]-{NH((S)CH(Me)CH2NMe2)}) | 0.139 | – | – | – | – | – | – | – | – | –
– | CC[C@H](C)/C=C/C(=O)N1C[C@@H](C)C[C@H]1C(=O)N[C@@H](CCC1CCCCC1)C(=O)N[C@@H](CC(C)C)C(=O)NC(C)(C)C(=O)N[C@@H](CC(C)C)C(=O)N[C@@H](CC(C)C)C(=O)NC(C)(C)C(=O)NC(C)(C)C(=O)NCCC(=O)N[C@@H](C)CN(C)C ({Hexenoyl(2E,4S-Me)}-[Pro(4S-Me)][hCha]L[Aib]LL[Aib][Aib][βAla]-{NH((S)CH(Me)CH2NMe2)}) | 0.107 | – | 0.00069 | 0.0013 | 0.043 | Active | 0.00026 | 0.157 | – | –
– | CC(C)C[C@H](NC(=O)[C@H](CC(C)C)NC(=O)C(C)(C)NC(=O)[C@@H](NC(=O)[C@H](CCC1CCCCC1)NC(=O)[C@@H]1C[C@H](C)CN1C(=O)c1ccc(F)cc1)[C@H](O)C(C)C)C(=O)NC(C)(C)C(=O)NC(C)(C)C(=O)NCCC(=O)N[C@@H](C)CN(C)C ({Benzoyl(4-F)}-[Pro(4S-Me)][hCha][Leu(3R-OH)][Aib]LL[Aib][Aib][βAla]-{NH((S)CH(Me)CH2NMe2)}) | 0.055 | – | 0.0034 | 0.01 | 0.423 | Active | 0.00063 | 1.34 | Active | –
0.072 | CC(C)C[C@H](NC(=O)[C@H](CCC1CCCCC1)NC(=O)[C@@H]1CCCN1C(=O)c1ccc(F)cc1)C(=O)NC(C)(C)C(=O)N[C@@H](CC(C)C)C(=O)N[C@@H](CC(C)C)C(=O)NC(C)(C)C(=O)NC(C)(C)C(=O)NCCC(=O)NCCN1CCOCC1 ({Benzoyl(4-F)}-P[hCha]L[Aib]LL[Aib][Aib][βAla]-{NH(2-morpholinoethyl)}) | 0.703 | – | – | – | – | – | – | – | – | –
0.0039 | Cc1nc(C(=O)N2CCC[C@H]2C(=O)N[C@@H](COC(C)(C)C)C(=O)N[C@@H](CC(C)C)C(=O)NC(C)(C)C(=O)N[C@@H](CC(C)C)C(=O)N[C@@H](CC(C)C)C(=O)NC(C)(C)C(=O)NC(C)(C)C(=O)NCCC(=O)NC2(CN(C)C)CCC2)co1 ({Oxazole4CO(2-Me)}-PS(tBu)L[Aib]LL[Aib][Aib][βAla]-{NH(1-CH2NMe2-cBu)}) | 18.1 | > 8.75 | 0.272 | 0.166 | 6.41 | – | – | – | – | –
– | CC(C)C[C@H](NC(=O)[C@H](CCC1CCCCC1)NC(=O)[C@@H]1C[C@H](C)CN1C(=O)c1ccc(F)cc1)C(=O)NC(C)(C)C(=O)N[C@@H](CC(C)C)C(=O)N[C@@H](CC(C)C)C(=O)NC(C)(C)C(=O)NC(C)(C)C(=O)NCCC(=O)N[C@@H](C)CN(C)C ({Benzoyl(4-F)}-[Pro(4S-Me)][hCha]L[Aib]LL[Aib][Aib][βAla]-{NH((S)CH(Me)CH2NMe2)}) | 0.084 | – | 0.0013 | 0.00034 | 0.0039 | Active | 0.0003 | 0.266 | Active | –
0.00076 | Cc1nc(C(=O)N2CCC[C@H]2C(=O)N[C@@H](CCC2CCCCC2)C(=O)N[C@@H](CC(C)C)C(=O)NC(C)(C)C(=O)N[C@@H](CC(C)C)C(=O)N[C@@H](CC(C)C)C(=O)NC(C)(C)C(=O)NC(C)(C)C(=O)NCCC(=O)NC2(CN(C)C)CCC2)co1 ({Oxazole4CO(2-Me)}-P[hCha]L[Aib]LL[Aib][Aib][βAla]-{NH(1-CH2NMe2-cBu)}) | – | – | 0.0048 | 0.011 | 0.193 | – | – | – | – | –
– | CCCCCCCC[C@H](NC(=O)[C@@H]1C[C@H](C)CN1C(=O)/C=C/[C@@H](C)CC)C(=O)N[C@H](C(=O)NC(C)(C)C(=O)N[C@@H](CC(C)C)C(=O)N[C@@H](CC(C)C)C(=O)NC(C)(C)C(=O)NC(C)(C)C(=O)NCCC(=O)N[C@@H](C)CN(C)C)[C@H](O)C(C)C ({Hexenoyl(2E,4S-Me)}-[Pro(4S-Me)][Gly(octyl)][Leu(3R-OH)][Aib]LL[Aib][Aib][βAla]-{NH((S)CH(Me)CH2NMe2)}) | 0.053 | – | 0.00034 | 0.00069 | 0.024 | – | 0.00034 | 0.077 | – | –
– | CC[C@H](C)/C=C/C(=O)N1CCC[C@H]1C(=O)N[C@@H](CCC1CCCCC1)C(=O)N[C@H](C(=O)NC(C)(C)C(=O)N[C@@H](CC(C)C)C(=O)N[C@@H](CC(C)C)C(=O)NC(C)(C)C(=O)NC(C)(C)C(=O)NCCC(=O)N[C@@H](C)CN(C)C)[C@H](O)C(C)C ({Hexenoyl(2E,4S-Me)}-P[hCha][Leu(3R-OH)][Aib]LL[Aib][Aib][βAla]-{NH((S)CH(Me)CH2NMe2)}) | 0.029 | – | 0.00052 | 0.00053 | 0.18 | – | 0.00056 | 0.208 | – | –
– | CC(C)C[C@H](NC(=O)[C@H](CC(C)C)NC(=O)C(C)(C)NC(=O)[C@@H](NC(=O)[C@H](CCC1CCCCC1)NC(=O)[C@@H]1CCCN1C(=O)c1ccc(F)cc1)[C@H](O)C(C)C)C(=O)NC(C)(C)C(=O)NC(C)(C)C(=O)NCCC(=O)N[C@@H](C)CN(C)C ({Benzoyl(4-F)}-P[hCha][Leu(3R-OH)][Aib]LL[Aib][Aib][βAla]-{NH((S)CH(Me)CH2NMe2)}) | 0.134 | – | 0.003 | 0.0067 | 1.13 | – | 0.0013 | 1.23 | – | –
– | N#CC(C#N)=NNc1ccc(OC(F)(F)F)cc1 | – | – | – | – | – | – | – | – | – | Not_determined
0.0013 | Cc1nc(C(=O)N2CCC[C@H]2C(=O)N[C@@H](Cc2c[nH]c3ccccc23)C(=O)N[C@@H](CC(C)C)C(=O)NC(C)(C)C(=O)N[C@@H](CC(C)C)C(=O)N[C@@H](CC(C)C)C(=O)NC(C)(C)C(=O)NC(C)(C)C(=O)NCCC(=O)NC2(CN(C)C)CCC2)co1 ({Oxazole4CO(2-Me)}-PWL[Aib]LL[Aib][Aib][βAla]-{NH(1-CH2NMe2-cBu)}) | – | – | 0.018 | 0.031 | 2.7 | – | – | – | – | –

SMILES | IC50 [3] [µM] | Ki ([1]; read-out: Ki) [µM] | IC50 [2] [µM] | IC50 (Plasmodium falciparum) [µM] | IC50 (Leishmania donovani) [µM] | IC50 (Trypanosoma cruzi) [µM] | Activity (Fibroblast [4]) | IC50 [5] [µM] | IC50 at 72 h [6] [µM] | Activity (Fibroblast [7]) | Ki [1]
CCCC[C@H](NC(=O)[C@@H]1CCCN1C(=O)c1coc(C)n1)C(=O)N[C@@H](CC(C)C)C(=O)NC(C)(C)C(=O)N[C@@H](CC(C)C)C(=O)N[C@@H](CC(C)C)C(=O)NC(C)(C)C(=O)NC(C)(C)C(=O)NCCC(=O)NC1(CN(C)C)CCC1 ({Oxazole4CO(2-Me)}-P[Nle]L[Aib]LL[Aib][Aib][βAla]-{NH(1-CH2NMe2-cBu)}) | 0.0065 | – | > 8.75 | 0.118 | 1.53 | 5.91 | – | – | – | – | –
Cc1nc(C(=O)N2CCC[C@H]2C(=O)N[C@H](C(=O)N[C@@H](CC(C)C)C(=O)NC(C)(C)C(=O)N[C@@H](CC(C)C)C(=O)N[C@@H](CC(C)C)C(=O)NC(C)(C)C(=O)NC(C)(C)C(=O)NCCC(=O)NC2(CN(C)C)CCC2)C(C)(C)C)co1 ({Oxazole4CO(2-Me)}-P[Tle]L[Aib]LL[Aib][Aib][βAla]-{NH(1-CH2NMe2-cBu)}) | 0.0041 | 16.2 | > 8.98 | 0.212 | 1.19 | 6.52 | – | – | – | – | –
